# Measurements reported in the NIST ThermoML archive (doi:10.1021/je500358r).
# Numbers after ± are expanded uncertainties.
# How the values were obtained:
# [1] = for vapor or sublimation pressure: Liquid, Gas chromatography
# [2] = molar enthalpy of vaporization or sublimation; conditions: 298 K; Liquid; DSC
# [3] = Molar enthalpy of transition or fusion; conditions: DSC
SMILES,vapor or sublimation pressure ([1]; 283.15 K),vapor or sublimation pressure ([1]; 288.15 K),vapor or sublimation pressure ([1]; 293.15 K),vapor or sublimation pressure ([1]; 298.15 K),vapor or sublimation pressure ([1]; 303.15 K),vapor or sublimation pressure ([1]; 308.15 K),vapor or sublimation pressure ([1]; 313.15 K),molar enthalpy [2],"Normal melting temperature ([1]; Crystal 1, DTA)","Triple point temperature ([1]; Crystal 2, DTA)",Molar enthalpy of transition or fusion ([3]; Crystal 1),Molar enthalpy of transition or fusion ([3]; Crystal 2)
"CCCCCCCCCCCCCCCCN(C)C [1-hexadecanamine, N,N-dimethyl-]",2e-06 ± 1e-06 kPa,3e-06 ± 1e-06 kPa,6e-06 ± 1e-06 kPa,1.1e-05 ± 1e-06 kPa,1.9e-05 ± 2e-06 kPa,3.2e-05 ± 3e-06 kPa,5.5e-05 ± 6e-06 kPa,20.3 ± 2.87 kcal/mol,,,,
"CCCCCCCCCCCCCCN(C)C [1-tetradecanamine, N,N-dimethyl-]",1.7e-05 ± 2e-06 kPa,3.1e-05 ± 3e-06 kPa,5.4e-05 ± 5e-06 kPa,9.2e-05 ± 9e-06 kPa,0.000153 ± 1.5e-05 kPa,0.000253 ± 2.5e-05 kPa,0.00041 ± 4.1e-05 kPa,18.5 ± 1 kcal/mol,,,,
C#CCN(C)[C@H](C)Cc1ccccc1 [(R)-N-methyl-N-(1-phenylpropan-2-yl)prop-2-yn-1-amine],0.0006 ± 0.0001 kPa,0.001 ± 0.0001 kPa,0.0016 ± 0.0002 kPa,0.0025 ± 0.0003 kPa,0.0038 ± 0.0004 kPa,0.0058 ± 0.0006 kPa,0.0086 ± 0.0009 kPa,15.4 ± 1.12 kcal/mol,,,,
C[C@@H](Cc1ccccc1)N(C)Cc1ccccc1 [(S)-N-benzyl-N-methyl-1-phenylpropan-2-amine],8e-06 ± 1e-06 kPa,1.4e-05 ± 2e-06 kPa,2.4e-05 ± 2e-06 kPa,4e-05 ± 4e-06 kPa,6.7e-05 ± 7e-06 kPa,0.000111 ± 1.1e-05 kPa,0.000179 ± 1.8e-05 kPa,18.5 ± 0.55 kcal/mol,,,,
CCN(CCCc1ccccc1)CCCc1ccccc1 [N-ethyl-3-phenyl-N-(3-phenylpropyl)propan-1-amine],2e-07 ± 1e-07 kPa,4e-07 ± 1e-07 kPa,7e-07 ± 1e-07 kPa,1.4e-06 ± 2e-07 kPa,2.5e-06 ± 3e-07 kPa,4.5e-06 ± 5e-07 kPa,7.8e-06 ± 8e-07 kPa,21.3 ± 0.669 kcal/mol,,,,
"c1ccc(CN(Cc2ccccc2)Cc2ccccc2)cc1 [benzenemethanamine, N,N-bis(phenylmethyl)-]",7e-08 ± 2e-08 kPa,1.4e-07 ± 2e-08 kPa,2.7e-07 ± 4e-08 kPa,5e-07 ± 6e-08 kPa,9.3e-07 ± 1e-07 kPa,1.7e-06 ± 1.8e-07 kPa,3.03e-06 ± 3.1e-07 kPa,22.1 ± 0.837 kcal/mol,92.5 ± 0.4 °C,342.5 ± 0.9 K,5.5 ± 0.127 kcal/mol,0.264 ± 0.0502 kcal/mol
CCCCN(CCCC)CCCC [tributylamine],0.008 ± 0.001 kPa,0.013 ± 0.001 kPa,0.019 ± 0.002 kPa,0.028 ± 0.003 kPa,0.042 ± 0.004 kPa,0.06 ± 0.006 kPa,0.087 ± 0.009 kPa,13.9 ± 0.98 kcal/mol,,,,
CC(C)CN(CC(C)C)CC(C)C [triisobutylamine],0.037 ± 0.004 kPa,0.055 ± 0.006 kPa,0.079 ± 0.008 kPa,0.113 ± 0.011 kPa,0.159 ± 0.016 kPa,0.222 ± 0.022 kPa,0.306 ± 0.031 kPa,12.5 ± 1.1 kcal/mol,,,,
CCCCCCCCN(CCCCCCCC)CCCCCCCC [trioctylamine],2e-08 ± 1e-08 kPa,3e-08 ± 1e-08 kPa,7e-08 ± 2e-08 kPa,1.4e-07 ± 2e-08 kPa,2.8e-07 ± 4e-08 kPa,5.3e-07 ± 6e-08 kPa,1e-06 ± 1.1e-07 kPa,23.9 ± 0.837 kcal/mol,,,,
CCCN(CCC)CCC [tripropylamine],0.199 ± 0.02 kPa,0.278 ± 0.028 kPa,0.384 ± 0.038 kPa,0.524 ± 0.052 kPa,0.709 ± 0.071 kPa,0.949 ± 0.095 kPa,1.259 ± 0.13 kPa,,,,,
